# How the values were obtained:
# [1] = Dissolution of TPA and CHDA in water in stirred autoclave (Examples 1-3); assay type: physicochemical; conditions: Examples 1-3: 1.7-1.9 wt % TPA, 28.1-48.2 wt % CHDA, 50-70 wt % water, 170-190 °C, 10 MPa, 15 minutes
# Description: These examples are provided to highlight and validate the use of the method based on the dissolution chart for setting solvent and recirculation flows. For each of these examples, a slurry was prepared in a stirred autoclave, by mixing pre-determined amounts of water, TPA in powder form, and CHDA (22% trans) in powder form. The autoclave was then pressurized to 10 MPa using nitrogen gas and the temperature was then raised to the pre-determined level. Samples were drawn after 15 minutes of operation at this temperature level and analyzed to determine the compositions of TPA and CHDA. The predetermined feed mixture compositions and the pre-determined temperature levels for these experiments are shown in Table 1 below. Each pre-determined feed mixture composition is chosen such that it very closely corresponds to water/TPA and recirculation/TPA flow ratios that may be used in actual operation according to the preferred values from FIG. 6.
# [2] = Solubility of TPA in water; assay type: physicochemical
# From the text: Based on this, it is clearly evident that it will be beneficial to have processes for production of CHDM and CHDA directly from TPA without going through an intermediate TPA derivative. As noted initially, the main hurdle for such processes is getting TPA into the liquid phase.
Dissolution in water/TPA/CHDA mixture [1],TPA Solubility ([2]; 150 °C),TPA Solubility ([2]; 200 °C),TPA Solubility ([2]; 250 °C),Structure (SMILES)
completely dissolved,,,,"O=C(O)C1CCC(C(=O)O)CC1 (centres unmarked) [CHDA, 1,4-cyclohexanedicarboxylic acid]"
completely dissolved,0.0022 wt fraction,0.016 wt fraction,0.11 wt fraction,"O=C(O)c1ccc(C(=O)O)cc1 [TPA, terephthalic acid]"
